Assay results from ChEMBL document CHEMBL1165947, “Synthesis and antitumor activity of 2,5-bis(3'-indolyl)-furans and 3,5-bis(3'-indolyl)-isoxazoles, nortopsentin analogues” (Bioorg Med Chem, 2010).

System: P388
Test: Cytotoxicity against mouse P388 cells
Type: functional, cell-based

Cn1c(-c2cn(C)c3ccccc23)cnc1-c1cn(C)c2cc(Br)ccc12 [N-METHYL NORTOPSENTIN B]
IC50: 0.8 µM

Brc1ccc2c(-c3c[nH]c(-c4c[nH]c5cc(Br)ccc45)n3)c[nH]c2c1 [NORTOPSENTIN A]
IC50: 4.5 µM

Brc1ccc2c(-c3nc(-c4c[nH]c5ccccc45)c[nH]3)c[nH]c2c1 [NORTOPSENTIN B]
IC50: 4.5 µM

Brc1ccc2c(-c3c[nH]c(-c4c[nH]c5ccccc45)n3)c[nH]c2c1 [NORTOPSENTIN C]
IC50: 4.5 µM
